The values that follow come from PMC11131246, “Molecular determinants for brain targeting by peptides: a meta-analysis approach with experimental validation” (Fluids and Barriers of the CNS, 2024).

Series [1] is described as follows: Cytotoxicity, CellTiter-Blue cell viability assay. The class given is cell-based. Particulars: human. How it is done: (§1) Peptide cytotoxicity was determined using the CellTiter-Blue® cell viability assay, following a described protocol. Briefly, all cell lines were carefully harvested with trypsin–EDTA and seeded 10.000–20.000 cells/100 μL into 96-well clear flat-bottomed polystyrene plates (Corning, USA) for 24 h. After medium removal, cells were washed twice with 1X PBS, and 100 µL of previously diluted peptides (range from 0.05–100.0 µM) in the respective medium were added to cells. Then, after 24 h, cells were washed twice with 1X PBS and 20 µL of CellTiter-Blue® Reagent (diluted in 100 µL of medium) was added to each well and incubated for 3 h in culturing conditions. The fluorescence intensity was measured using Varioskan™ LUX multimode microplate reader.
(§2) IC50 values were determined using GraphPad Prism 7.0 software using a log(inhibitor) versus normalized response. Experiments were performed in triplicates on different days using three independently grown cell cultures.

A short description of series [2]: Cytotoxicity, CellTiter-Blue cell viability assay. The class given is cell-based. The following applies: human. How it is done: as §1, §2
The source holds these as a separate data set.

The nature of series [3]: Cytotoxicity, CellTiter-Blue cell viability assay. The class given is cell-based. The following applies: human. How it is done:
as §1, §2
This is another data set of the same source.

Series [4] in a line: Cytotoxicity, CellTiter-Blue cell viability assay. It counts as cell-based. Particulars: human. As to the method:
as §1, §2
This is another data set of the same source.

Series [5] can be described thus: Cytotoxicity, CellTiter-Blue cell viability assay. The class given is cell-based. The following applies: human. As to the method:
as §1, §2
The source holds these as a separate data set.

Series [6] in a line: Analytical RP-HPLC retention time (used as indication of hydrophobicity). It counts as physicochemical.
Series [7] in a line: Biodistribution of 67Ga-radiolabeled peptides. On the set-up: species or system mouse. The following applies: female, in vivo, iv, 100 uCi, total radioactivity, mean ± SD, n = 3; for tissue uptake at 1 h / tissue uptake at 2 min: CD1, mouse, i.v. tail vein; for tissue uptake at 2 min: 2 min post injection. How it is done:
All animal experiments were performed in compliance with national and EU legislation for good practices on laboratory animal science. The animals were housed in a temperature and humidity-controlled environment with a 12 h light/12 h dark schedule. Biodistribution of radiolabeled peptides was performed on 7 weeks old CD1 female mice.
Animals were intravenously injected into the tail vein with 100 µL of a 25 µM saline solution of the ^67Ga-peptide with a radioactivity around 100 µCi. The mice were euthanized by cervical dislocation at 2 min and 1 h after injection. The dose administered and the radioactivity in the euthanized animals was measured using a dose calibrator (Carpintec CRC-15W, Ramsey, USA). The difference between the radioactivity in the injected and the euthanized animals was assumed to be due to excretion. Brain and tissues of interest without previous perfusion were dissected, washed, and weighed, and their radioactivity was measured using a γ counter (Hidex AMG, Hidex, Turku, Finland). The uptake in the brain and tissues of interest was calculated and expressed as a percentage of injected radioactivity dose per gram of tissue (% ID/g).

[8] abbreviates: analytical reverse phase HPLC, UV chromatogram, free and CF-labelled peptides.

Like-named read-outs stand apart in the source and are kept apart here. Residues, ends and D or L forms follow the SMILES beside them. No end group written: not given here. *: point of attachment. NODAGA = O=C(O)CN1CCN(CC(=O)O)CCN(C(CCC(=O)*)C(=O)O)CC1 Where only a bound is given, the exact number is not on record here.

Regarding NRPDSAQFWLHH-NH2 [BBBpS_9], the IC50 at 24 h in series [1], in series [2], in series [3], in series [4] and in series [5] was over 100 µM in each case.
Turning to LKTLTETLKELTKTLTEL-NH2 [BBBpS_7], the IC50 at 24 h in series [1], in series [2], in series [3], in series [4] and in series [5] was over 100 µM in each case.
With APWHLSSQYSRT-NH2 [BBBpS_4], the half-inhibitory concentration (IC50) at 24 h in series [1], in series [2], in series [3], in series [4] and in series [5] was over 100 µM in each case.
On to YDEEGGGE-NH2 [non-BBBpS_3], for which the IC50 at 24 h in series [1], in series [2], in series [3], in series [4] and in series [5] was over 100 µM throughout.
Turning to KYRSGAITIGY-NH2 [BBBpS_2], the IC50 at 24 h in series [1], in series [2], in series [3], in series [4] and in series [5] was over 100 µM each time.
As for “CF-EEGRLYMRYYSPTTRRYG-amide [CF-CPP(II), 5(6)-carboxyfluorescein-labelled CPP(II)]”, the “HPLC tR” value in series [6] (setting [8]) is given as 7.95 min.
Turning to `CSCC[C@H](NC(=O)[C@H](CC(C)C)NC(=O)CNC(=O)[C@H](Cc1ccccc1)NC(=O)[C@H](Cc1ccccc1)NC(=O)[C@H](CCC(N)=O)NC(=O)[C@H](CCC(N)=O)NC(=O)[C@@H]1CCCN1C(=O)[C@H](CCCCN)NC(=O)[C@@H]1CCCN1C(=O)[C@@H](N)CCCN=C(N)N)C(N)=O` [BBBpS_10], the IC50 at 24 h in series [1], in series [2], in series [3], in series [4] and in series [5] was over 100 µM each time.
As for `CC[C@H](C)[C@H](NC(=O)CNC(=O)[C@H](CCCNC(=N)N)NC(=O)[C@H](Cc1ccc(O)cc1)NC(=O)[C@H](CS)NC(=O)[C@@H](NC(=O)[C@H](CCCNC(=N)N)NC(=O)[C@H](Cc1ccccc1)NC(=O)[C@H](CS)NC(=O)[C@H](Cc1c[nH]c2ccccc12)NC(=O)[C@H](CCCCN)NC(=O)CCC(C(=O)O)N1CCN(CC(=O)O)CCN(CC(=O)O)CC1)C(C)C)C(=O)N[C@@H](CS)C(=O)N[C@@H](Cc1ccc(O)cc1)C(=O)N[C@@H](CCCNC(=N)N)C(=O)N[C@@H](CCCNC(=N)N)C(=O)N[C@@H](CS)C(=O)N[C@@H](CCCNC(=N)N)C(N)=O` (stereo partly shown) [67Ga-non-BBBpS_2, metal not drawn] ({NODAGA}-KWCFRVCYRGICYRRCR-NH2), the tissue uptake at 1 h turned out to be 0.9 ± 0.6 %ID/g in series [7] (blood, 1 h post injection, CD1 female mice, 100 µL of 25 µM 67Ga-peptide, γ counter, read-out: Tissue distribution, Blood); 1.6 ± 0.1 %ID/g in series [7] (bone, 1 h post injection, CD1 mice, read-out: Tissue distribution, Bone); 0.13 ± 0.03 %ID/g in series [7] (brain without perfusion, 1 h post injection, CD1 female mice, γ counter, read-out: Tissue distribution, Brain (brain uptake)); 1.7 ± 0.1 %ID/g in series [7] (heart, 1 h post injection, CD1 mice, read-out: Tissue distribution, Heart); 1.6 ± 0.5 %ID/g in series [7] (intestine, 1 h post injection, CD1 mice, read-out: Tissue distribution, Intestine); 5.4 ± 0.8 %ID/g in series [7] (kidney, 1 h post injection, CD1 mice, read-out: Tissue distribution, Kidney). Moreover, the tissue uptake at 1 h in series [7] (liver, 1 h post injection, CD1 mice, read-out: Tissue distribution, Liver) turned out to be 22.8 ± 10.1 %ID/g; in series [7] (lung, 1 h post injection, CD1 mice, read-out: Tissue distribution, Lung) it was 2.4 ± 0.7 %ID/g; in series [7] (muscle, 1 h post injection, CD1 mice, read-out: Tissue distribution, Muscle), 1.2 ± 0.4 %ID/g; in series [7] (spleen, 1 h post injection, CD1 mice, read-out: Tissue distribution, Spleen), 3.7 ± 1.8 %ID/g; in series [7] (stomach, 1 h post injection, CD1 mice, read-out: Tissue distribution, Stomach), 1.7 ± 0.6 %ID/g. Besides, the tissue uptake at 2 min in series [7] (bone, CD1 mice, read-out: Tissue distribution, Bone) is 3.7 ± 0.5 %ID/g; in series [7] (heart, CD1 mice, read-out: Tissue distribution, Heart) it was 6 ± 0.8 %ID/g; in series [7] (intestine, CD1 mice, read-out: Tissue distribution, Intestine), 2.7 ± 0.7 %ID/g; in series [7] (kidney, CD1 mice, read-out: Tissue distribution, Kidney), 19.9 ± 0.4 %ID/g; in series [7] (liver, CD1 mice, read-out: Tissue distribution, Liver), 19.8 ± 0.7 %ID/g; in series [7] (lung, CD1 mice, read-out: Tissue distribution, Lung), 7.6 ± 1.5 %ID/g. Also, the tissue uptake at 2 min in series [7] (muscle, CD1 mice, read-out: Tissue distribution, Muscle) was found to be 1.8 ± 0.5 %ID/g; in series [7] (spleen, CD1 mice, read-out: Tissue distribution, Spleen), 5.6 ± 0.4 %ID/g; in series [7] (stomach, CD1 mice, read-out: Tissue distribution, Stomach), 2.1 ± 0.6 %ID/g. The excretion (% injected dose) in series [7] (mouse, 1 h post injection, difference between radioactivity injected and in the euthanized animal, CD1 mice) is 13.5 ± 5.1 %ID. Further, the “HPLC tR” value in series [6] (separate analytical RP-HPLC coupled to a γ-detector, 67Ga-NODA-GA labelled peptides) worked out at 12.99 min.
Take “CF-YDEEGGGE-amide [CF-YDEGE, 5(6)-carboxyfluorescein-labelled YDEGE]”: the “HPLC tR” value in series [6] (setting [8]) amounted to 7.89 min.
Consider YTQDFNKFHTFPQTAIGVGAP-NH2 [BBBpS_6], for which the IC50 at 24 h in series [1], in series [2], in series [3], in series [4] and in series [5] was over 100 µM in each case.
As to “CF-NRPDSAQFWLHH-amide [CF-Peptide third, 5(6)-carboxyfluorescein-labelled Peptide third]”, in series [6] (setting [8]), the “HPLC tR” value is 8.01 min.
Turning to HIQLSPFSQSWR-NH2 [BBBpS_5], the IC50 at 24 h in series [1], in series [2], in series [3], in series [4] and in series [5] was over 100 µM each time.
Turning to “CF-KKKKQPPKPKKPKTQEKKKKQPPKPKR-amide [CF-P1746c27, 5(6)-carboxyfluorescein-labelled P1746c27]”, the “HPLC tR” value in series [6] (setting [8]) is recorded as 4.23 min.
As for KYKGAIIGNIK-NH2 [BBBpS_1], the half-maximal inhibitory concentration (IC50) at 24 h in series [1], in series [2], in series [3], in series [4] and in series [5] was over 100 µM in each case.
As to YKEATSTFTNITYRGT-NH2 [BBBpS_8], the IC50 at 24 h in series [1], in series [2], in series [3], in series [4] and in series [5] was over 100 µM each time.
